Here are results for 25 compounds from ChEMBL document CHEMBL1152884, “The identification of orally bioavailable thrombopoietin agonists” (Bioorg Med Chem Lett, 2009).

The term solubility denotes the concentration that dissolves in the medium under given conditions. Usually logD stands for the decadic logarithm of the distribution of all forms, ionised or not, between an organic phase and buffer at a given pH. The low end stands for lower lipophilicity, the high end for higher lipophilicity. Broadly, the EC50 is the concentration at which the effect is half-maximal. What is called half-life is how long it takes for the measured level to halve. Read a high half-life as slow decline. Usually bioavailability stands for dose-corrected exposure relative to a reference, in per cent. A low value points to little systemic uptake. By CL/F is commonly meant clearance divided by bioavailability, as obtained after extravascular dosing. As usually defined, the clearance is the volume of plasma or blood freed of the substance per unit of time. The low end stands for a low capacity for elimination, the high end for a high capacity for elimination.

≈ marks a conversion by molar mass, not a printed value.

The nature of series [1]: Aqueous solubility of the compound. Type of series: physicochemical.
Series [2] is described as follows: Lipophilicity, log D of the compound. The class given is physicochemical. To be noted: octanol/water.
The target in series [3] is T1, Thrombopoietin receptor (Homo sapiens, UniProt P40238).
T1 sequence (P40238 whole entry): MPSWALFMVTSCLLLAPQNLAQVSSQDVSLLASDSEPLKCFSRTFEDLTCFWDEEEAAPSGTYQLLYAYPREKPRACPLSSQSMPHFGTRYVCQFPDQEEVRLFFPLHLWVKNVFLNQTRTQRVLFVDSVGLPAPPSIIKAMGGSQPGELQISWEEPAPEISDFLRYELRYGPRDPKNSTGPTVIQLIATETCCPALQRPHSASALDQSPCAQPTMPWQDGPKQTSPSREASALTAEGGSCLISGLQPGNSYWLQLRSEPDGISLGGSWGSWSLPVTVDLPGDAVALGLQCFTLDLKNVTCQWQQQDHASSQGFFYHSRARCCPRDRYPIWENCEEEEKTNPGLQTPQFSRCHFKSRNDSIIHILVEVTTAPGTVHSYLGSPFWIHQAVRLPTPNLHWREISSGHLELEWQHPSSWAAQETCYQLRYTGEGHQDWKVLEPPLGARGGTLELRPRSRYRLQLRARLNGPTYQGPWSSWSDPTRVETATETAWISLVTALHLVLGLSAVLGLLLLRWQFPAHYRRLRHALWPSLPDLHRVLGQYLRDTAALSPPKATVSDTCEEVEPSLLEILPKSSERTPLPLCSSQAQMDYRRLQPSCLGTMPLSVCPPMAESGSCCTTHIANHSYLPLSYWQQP
The series can be described thus: Agonist activity at human thrombopoietin receptor transfected in mouse BAF3 cells assessed as stimulation of beta lactamase activity incubated in dark up to 1 hr. The class given is functional, cell-based.

Series [4] in a line: Half life in rat at 5 mg/kg, po. To be noted: in vivo. The class given is ADME, organism-based. More on the design: dose 5 mg/kg, route oral.
The nature of series [5]: Bioavailability in rat at 5 mg/kg, po. The class given is ADME, organism-based. To be noted: in vivo.
Series [6] in a line: Plasma clearance in rat at 5 mg/kg, po. Type of series: ADME, organism-based. More on the design: dose 5 mg/kg, route oral.
The test system of series [7] is Rattus norvegicus. Nature of the series: Volume of distribution at steady state in rat at 5 mg/kg, po. The class given is ADME, organism-based. Also noted: dose 5 mg/kg, route oral. The note with it: in vivo.
Series [8] has as its system Canis familiaris. Nature of the series: Volume of distribution at steady state in dog at 5 mg/kg, po. To be noted: in vivo. More on the design: dose 5 mg/kg, route oral. Type of series: ADME, organism-based, Canis lupus familiaris.
Series [9] is described as follows: Plasma clearance in dog at 5 mg/kg, po. The class given is ADME, organism-based, Canis lupus familiaris. More on the design: dose 5 mg/kg, route oral.
Series [10] can be described thus: Half life in dog at 5 mg/kg, po. Type of series: ADME, organism-based, Canis lupus familiaris. More on the design: dose 5 mg/kg, route oral. The note with it: in vivo.
Series [11] can be described thus: Bioavailability in dog at 5 mg/kg, po. Type of series: ADME, organism-based, Canis lupus familiaris. To be noted: in vivo.
Series [12] is described as follows: Clearance in iv dosed rat. The class given is ADME, organism-based. The note with it: in vivo.
A short description of series [13]: Permeability across human Caco-2 cell membrane. Type of series: ADME, cell-based. The note with it: read-out: permeability. For orientation: Caco-2 cells form a polarised layer with tight junctions and transporters.
Series [14] can be described thus: Oral bioavailability in rat. Type of series: ADME, organism-based. The note with it: in vivo.
Series [15] can be described thus: Protein binding in human plasma. The class given is ADME, cell-free. The note with it: read-out: PPB.
Series [16] can be described thus: Protein binding in mouse plasma. Type of series: ADME, cell-free. The note with it: read-out: PPB.
Series [17] is described as follows: Protein binding in rat plasma. Type of series: ADME, cell-free. The note with it: read-out: PPB.
Series [18] can be described thus: Protein binding in dog plasma. The class given is ADME, cell-free, Canis lupus familiaris. To be noted: read-out: PPB.
The mark [19] stands for this setting: aqueous medium, read-out: solubility.

Consider `O=C(Nc1nc(-c2cccc(OC(F)(F)F)c2F)cs1)c1ccc(Nc2cc(N3CC(O)C3)ncn2)cc1`, for which, in series [1] (setting [19]), the solubility was less than 1 µg/mL. The same compound came in with a logD in series [2] of 4.61.

On to `O=C(Nc1nc(-c2cccc(C(F)(F)F)c2F)cs1)c1cnc(N2CCCCC2)c(Cl)c1`, for which the solubility in [1] (setting [19]) was less than 10 µg/mL. Besides, the EC50 in [3] is more than 10000 nM. The same compound yielded a pH-dependent lipophilicity (logD) in series [2] of 7.1.

Turning to `O=C(Nc1nc(-c2cccc(C(F)(F)F)c2F)cs1)c1cc(Cl)c(N2CCC(C(=O)O)CC2)c(Cl)c1`, the solubility in [1] (setting [19]) was less than 10 µg/mL. In series [3], the EC50 stood at 10 nM.

As to `NCCO.O=C(Nc1nc(-c2cccc(C(F)(F)F)c2F)cs1)c1cnc(N2CCC(C(=O)O)CC2)c(Cl)c1`, the solubility in [1] (setting [19]) is 15600 µg/mL.

With `O=C(Nc1nc(-c2cccc(C(F)(F)F)c2F)cs1)c1cnc(N2CCC(C(=O)O)CC2)c(Br)c1`, the solubility in [1] (setting [19]) is less than 10 µg/mL. For the same compound, the concentration giving a half-maximal response (EC50) in series [3] was determined as 50 nM.

In the case of `O=C(Nc1nc(-c2cccc(C(F)(F)F)c2F)cs1)c1ccc(N2CCC(C(=O)O)CC2)c(Cl)c1`, the solubility in series [1] (setting [19]) is less than 10 µg/mL. In addition, the EC50 in [3] was 56 nM.

Take `COc1cc(C(=O)Nc2nc(-c3cccc(C(F)(F)F)c3F)cs2)cnc1N1CCC(C(=O)O)CC1`: the solubility in series [1] (setting [19]) is less than 10 µg/mL. Further, the EC50 in series [3] is more than 1000 nM.

As to `C[C@H]1CN(c2ncc(C(=O)Nc3nc(-c4cccc(C(F)(F)F)c4F)cs3)cc2Cl)CC1C(=O)O` (some centres undefined), in [1] (setting [19]), the solubility was less than 10 µg/mL. In addition, the EC50 in [3] worked out at 43 nM. This compound also yielded a logD in [2] of 2.79.

As for `CC1=NN(c2ccc(C)c(C)c2)C(=O)/C1=N\Nc1cccc(-c2cccc(C(=O)[O-])c2)c1O.[Na+]`, the half-life in series [4] is 1.34 h. Moreover, the bioavailability in series [5] amounted to 66.8%. Besides, in [6], the CL/F worked out at 6.87 mL/min/kg. The compound also had a Vdss in [7] of 0.831 L/kg.

For `CC1=NN(c2ccc(C)c(C)c2)C(=O)/C1=N\Nc1cccc(-c2cccc(C(=O)O)c2)c1O.NCCO`, the Vdss was found to be 0.228 L/kg in [8] and 0.579 L/kg in series [7]. The same compound showed a solubility in series [1] (buffer) of less than 1 µg/mL. Moreover, the half-life in series [4] is 1.29 h; in series [10] it was 2.31 h. The results for the bioavailability in series [5] and in series [11] were 53.4% and 50%, respectively. The apparent clearance CL/F came out at 6.34 mL/min/kg in series [6] and 0.94 mL/min/kg in series [9].

As to `O=C(Nc1nc(-c2cccc(C(F)(F)F)c2F)cs1)c1cnc(N2CCC(C(=O)O)CC2)c(C(F)(F)F)c1`, in series [1] (setting [19]), the solubility was less than 10 µg/mL. For the same compound, in series [3], the 50% effective concentration (EC50) was 134 nM.

For `N#Cc1cc(C(=O)Nc2nc(-c3cccc(C(F)(F)F)c3F)cs2)cnc1N1CCC(C(=O)O)CC1`, the solubility in series [1] (setting [19]) is less than 10 µg/mL. The 50% effective concentration (EC50) in series [3] came out at 138 nM.

In the case of `Cc1cc(C(=O)Nc2nc(-c3cccc(C(F)(F)F)c3F)cs2)cnc1N1CCC(C(=O)O)CC1`, the solubility in [1] (setting [19]) was less than 10 µg/mL. In series [3], the concentration for a half-maximal effect (EC50) came out at 253 nM.

For `NC(=O)C1CCN(c2ncc(C(=O)Nc3nc(-c4cccc(C(F)(F)F)c4F)cs3)cc2Cl)CC1`, the solubility in series [1] (setting [19]) is less than 10 µg/mL. The EC50 in series [3] is 28 nM. The compound also came in with a pH-dependent lipophilicity (logD) in [2] of 4.92.

Turning to `O=C(Nc1nc(-c2cccc(C(F)(F)F)c2F)cs1)c1cnc(N2CCC(C(=O)O)CC2)c(F)c1`, in series [1] (setting [19]), the solubility is less than 10 µg/mL. In addition, the EC50 in [3] was more than 1000 nM.

In series [12], `O=C(Nc1nc(-c2cccc(C(F)(F)F)c2F)cs1)c1ccc(N2CCC(C(=O)O)C2)nc1` (centres undefined) had a clearance of 2.5 mL/min/kg. The Papp in [13] is 4.5 ×10⁻⁶ cm/s. The solubility in [1] (setting [19]) turned out to be 167 µg/mL (≈ 348 µM). Moreover, the half-maximal effective concentration (EC50) in [3] was found to be 3300 nM. Besides, the bioavailability in series [14] is less than 3%. Besides, the pH-dependent lipophilicity (logD) in series [2] turned out to be 1.21.

In the case of `O=C(Nc1nc(-c2cccc(C(F)(F)F)c2F)cs1)c1cnc(N2CCCC(C(=O)O)C2)c(Cl)c1` (centres undefined), the solubility in series [1] (setting [19]) is less than 10 µg/mL. Moreover, in series [3], the EC50 is 294 nM. The compound also registered a pH-dependent lipophilicity (logD) in [2] of 2.94.

Consider `O=C(Nc1nc(-c2cccc(C(F)(F)F)c2F)cs1)c1cnc(N2CCNC(C(=O)O)C2)c(Cl)c1` (centres undefined), for which the solubility in series [1] (setting [19]) is less than 10 µg/mL. Besides, the concentration giving a half-maximal response (EC50) in series [3] is 129 nM. Moreover, in series [2], the logD was determined as 1.88.

For the compound `NS(=O)(=O)C1CCN(c2ncc(C(=O)Nc3nc(-c4cccc(C(F)(F)F)c4F)cs3)cc2Cl)CC1`, in [1] (setting [19]), the solubility was less than 10 µg/mL. The EC50 in series [3] was determined as 34 nM. The pH-dependent lipophilicity (logD) in series [2] amounted to 4.86.

Regarding `O=C(Nc1nc(-c2cccc(C(F)(F)F)c2F)cs1)c1cnc(N2CCC(c3nn[nH]n3)CC2)c(Cl)c1`, the solubility in series [1] (setting [19]) was less than 10 µg/mL. Moreover, the half-maximal effective concentration (EC50) in series [3] was 485 nM. This compound displayed a logD in [2] of 3.24.

Take `NCCO.O=C(Nc1nc(-c2cccc(C(F)(F)F)c2F)cs1)c1ccc(N2CCC(C(=O)O)C2)nc1` (centres undefined): the solubility in series [1] (setting [19]) was more than 2000 µg/mL.

For `O=C(Nc1nc(-c2cccc(C(F)(F)F)c2F)cs1)c1ccc(N2CCC(C(=O)O)CC2)nc1`, the solubility in [1] (setting [19]) is less than 10 µg/mL. For the same compound, in series [3], the EC50 was 430 nM. In series [2], this compound had a logD of 1.83.

In the case of `O=C(Nc1nc(-c2cccc(C(F)(F)F)c2F)cs1)c1cnc(N2CCC(C(=O)O)CC2)c(Cl)c1`, the fraction unbound in series [15], in series [16], in series [17] and in series [18] was less than 0.005 each time. Moreover, the solubility in series [1] (setting [19]) is less than 10 µg/mL. In addition, in [3], the half-maximal effective concentration (EC50) came to 33 nM. The same compound yielded a logD in series [2] of 2.94.

For the compound `C[C@@H](Nc1ncc(C(=O)Nc2nc(-c3cccc(C(F)(F)F)c3F)cs2)cc1Cl)C(=O)O`, the solubility in [1] (setting [19]) is less than 10 µg/mL. Besides, in series [3], the half-maximal effective concentration (EC50) is 57 nM. This compound gave a logD in [2] of 1.57.

Consider `CC1=NN(c2ccc(C)c(C)c2)C(=O)/C1=N\Nc1cccc(-c2cccc(C(=O)O)c2)c1O` [ELTROMBOPAG], for which the solubility in [1] (buffer) amounted to 14000 µg/mL (≈ 31600 µM).
